Test results: patent publication US20140228287A1, “1-[(3-CYANO-PYRIDIN-2-YL)METHYL]-3-METHYL-7-(2-BUTYN-1-YL)-8-[3-(R)-AMINO-PIPERIDIN-1-YL]-AXANTHINE FOR THE TREATMENT OF A METABOLIC DISORDER OF A PREDOMINANTLY CARNIVOROUS NON-HUMAN ANIMAL” (BOEHRINGER INGELHEIM VETMEDICA GMBH, priority 2010, published 2014)
Counter-ions that a name gives are not always drawn. Like-named read-outs stand apart in the source and are kept apart here.

Assays:
[1] = tested on: normoglycaemic C57B1/6J mice; assay: Oral glucose tolerance test (acute and delayed) in normoglycaemic mice; assay type: in vivo, mouse; conditions: for ED50: Mus musculus, po, read-out: ED50 for lowering the glucose AUC
Experimental: The effect of 1-[(3-cyano-pyridin-2-yl)methyl]-3-methyl-7-(2-butyn-1-yl)-8-[3-(R)-amino-piperidin-1-yl]-xanthine on glucose tolerance in normoglycaemic C57B1/6J mice was assessed according to the following protocol of an oral glucose tolerance test (OGTT).
Male C57B1/6J mice (C57BL/6J@Rj) were obtained from Janvier (France). Animals were fed ad libitum with a standard pelleted diet (Diet No. 3438 [containing 19% protein, 4.5% fat], Provimi Kliba, Switzerland) and had free access to water. Animals were individually housed with a 12 h/12 h light/dark cycle (lights out between 6 p.m. and 6 a.m.). The mice were used for the experiments at 9 weeks of age.
For the determination of the acute oral glucose tolerance test, a basal blood sample (pre-dose) was obtained in the morning from overnight fasted C57B1/6J mice (n=7 per group) by cutting the tip of the tail without anaesthesia. Subsequently, the groups received a single oral administration of either vehicle or 1-[(3-cyano-pyridin-2-yl)methyl]-3-methyl-7-(2-butyn-1-yl)-8-[3-(R)-amino-piperidin-1-yl]-xanthine monohydrochloride at doses between 0.1 and 10 mg/kg bw, followed 45 min later by an oral administration of a glucose solution (2 g/kg bw, application volume 10 ml/kg bw). Additional blood samples were taken from the tip of the tail 30 min, 60 min, 90 min, 120 min, and 180 min after the glucose load, and blood glucose was measured. A final blood sample was drawn from the retrobulbal venous plexus under isoflurane anaesthesia 30 minutes after the last bleeding from the tail. EDTA plasma was prepared from this blood sample and frozen for determination of DPP-IV activity.
For the determination of the delayed oral glucose tolerance test, C57B1/6J mice (n=5 per group) were orally administered with either vehicle or 1-[(3-cyano-pyridin-2-yl)methyl]-3-methyl-7-(2-butyn-1-yl)-8-[3-(R)-amino-piperidin-1-yl]-xanthine monohydrochloride at doses between 0.1 and 10 mg/kg bw in the afternoon before the oral glucose tolerance test. […] Additional blood samples were taken from the tip of the tail 30 min, 60 min, 90 min, 120 min, and 180 min after the glucose load, and blood glucose was measured. […]
The two-sided unpaired Student t-test was used for statistical comparison of the control group and the active groups with the 5% level as the limit of statistical significance (*, P <0.05; **, P<0.01; ***, P<0.001). […] Changes from baseline (pre-dose value) within each group were analyzed by a paired Student t-test.
The area under the curve (AUC) for the time course of blood glucose concentrations during an OGTT was calculated by the trapezoidal rule after correction for the baseline values.
ED50 values were calculated by nonlinear regression analysis with a Hill coefficient of 1. […]

trypsin = assay: In vitro selectivity, human proteases: trypsin; assay type: biochemical; conditions: up to 100 μM
Text: In order to determine the in vitro selectivity of 1-[(3-cyano-pyridin-2-yl)methyl]-3-methyl-7-(2-butyn-1-yl)-8-[3-(R)-amino-piperidin-1-yl]-xanthine, the ability of this compound to inhibit a number of human proteases was investigated as described in Thomas et al. (2008), J. Pharmacol. Exp. Ther., vol. 325, p. 175-182, chapter In vitro DPP-4 Inhibition Assay, p. 176.

plasma DPP IV = assay: Plasma DPP IV activity after oral administration, Beagle dog; assay type: in vivo; conditions: 3 mg/kg oral, 24 hours post dose
Experimental: The effect of 1-[(3-cyano-pyridin-2-yl)methyl]-3-methyl-7-(2-butyn-1-yl)-8-[3-(R)-amino-piperidin-1-yl]-xanthine on plasma DPP IV activity after oral administration was investigated in the rat, the Beagle dog and the Rhesus monkey. These investigations were conducted as described in the following.
Overnight fasted male Beagle dogs (n=4 per group) were administered oral doses of 1-[(3-cyano-pyridin-2-yl)methyl]-3-methyl-7-(2-butyn-1-yl)-8-[3-(R)-amino-piperidin-1-yl]-xanthine monohydrochloride at 3 and 12 mg/kg body weight. Blood samples were drawn from a butterfly inserted in either the right or left forearm vein. Blood was collected in EDTA tubes prior to administration of 1-[(3-cyano-pyridin-2-yl)methyl]-3-methyl-7-(2-butyn-1-yl)-8-[3-(R)-amino-piperidin-1-yl]-xanthine monohydrochloride and subsequently at 1, 2, 4, 8, and 24 hour time points post dose. Plasma was prepared following blood collection and frozen for determination of DPP-IV activity.

## CC#CCn1c(N2CCC[C@@H](N)C2)nc2c1c(=O)n(Cc1ncccc1C#N)c(=O)n2C [1-[(3-cyano-pyridin-2-yl)methyl]-3-methyl-7-(2-butyn-1-yl)-8-[3-(R)-amino-piperidin-1-yl]-xanthine monohydrochloride]
[1]; 1 mg/kg 16 hours before OGTT (delayed setting)
  reduction of AUC for glucose excursion in OGTT: 29%
[1]; acute setting
  ED50: 0.2 mg/kg
[1]; delayed setting
  ED50: 0.3 mg/kg
[1]; acute dosing of 1 mg/kg
  suppression of AUC for glucose excursion in OGTT: 38%
trypsin
  inhibitory effect on trypsin: did not exert any inhibitory effect
Plasma DPP IV
  inhibition of plasma DPP IV activity: 76%
